Data published in paper PMC8207694, “Nucleoside transporter-guided cytarabine-conjugated liposomes for intracellular methotrexate delivery and cooperative choriocarcinoma therapy” (Journal of Nanobiotechnology, 2021).

Key:
JEG-3 cells [1] = test: Mitochondrial transmembrane potential (JC-1, CLSM); format: cell-based, human; conditions: 1 μg/mL MTX-equivalent, 24 h
Description: Mitochondrial transmembrane potential changes induced by various MTX formulations were evaluated by the JC-1 probe. Briefly, JEG-3 cells were added to the confocal dish. Following culture for 24 h, the cells were treated with free MTX, MTX + Cy-lipid, Lipo@MTX, or Cy-Lipo@MTX at an equivalent MTX concentration (1 μg/mL) for 24 h. JC-1 solution was exchanged for cold PBS following two JC-1 staining buffer washes, after which samples were assessed by CLSM at λex (488 nm)/λem (530 nm) for green fluorescence and λex (525 nm)/λem (590 nm) for red fluorescence.

JEG-3 cells [2] = test: Cell structure damage (bio-TEM); format: cell-based, human; conditions: 1 μg/mL MTX-equivalent, 24 h
Description: Bio-TEM was applied for observing the cell structure and mitochondrial damage effect induced by MTX formulations. Briefly, JEG-3 cells were seeded in a 6 cm dish. After culturing for 24 h, the cells were treated with free MTX, MTX + Cy-lipid, Lipo@MTX, or Cy-Lipo@MTX at an equivalent MTX concentration (1 μg/mL) for another 24 h. Then, cells were digested, centrifuged, and fixed with 2.5% glutaraldehyde solution at 4 °C for more than 4 h. Finally, the bio-TEM observation was performed after sample preparation.

JEG-3 tumor models = test: In vivo antitumor study; parameters: species or system BALB/c nude mice
Description: When tumors were 50–100 mm^3 in size, nude mice were intravenously administrated with saline or MTX formulations (free MTX, MTX + Cy-lipid, Lipo@MTX, or Cy-Lipo@MTX, 5 mg MTX-equivalent/kg body weight, each group contained 6 mice) on day 6, 9, 12, 14, 18, and 21. On the 24th day, the mice were sacrificed, and the tumors, as well as the main organs, were excised, weighed, washed three times using saline, and subjected to fixation with 10% neutral buffered formalin. The tumor tissues were collected for H&E, TUNEL, and Ki67 staining. […] The survival of large tumor-bearing mice (300–500 mm^3 in size) was analyzed via Kaplan–Meier analysis (each group contained 5 mice).

CN(Cc1cnc2nc(N)nc(N)c2n1)c1ccc(C(=O)N[C@@H](CCC(=O)O)C(=O)O)cc1 [free MTX, Methotrexate]
effect on mitochondrial transmembrane potential (JC-1 red fluorescence) (JEG-3 cells [1]): a certain destructive effect on the MMP
cell structure and mitochondria (bio-TEM) (JEG-3 cells [2]): cell structure was intact and the cell boundary was clearly visible
tumor volume (JEG-3 tumor models; day 24, 5 mg MTX-equivalent/kg i.v., six treatments, saline 2211.35 ± 236.66): 1210.14 ± 285.62 mm^3
tumor weight (JEG-3 tumor models; end of treatment cycle (day 24), saline 3.24 ± 0.60): 2.35 ± 0.32 g
